As a reminder, the IC90 is the concentration needed for an effect of 90%. A word on the solubility: it is how much of the substance goes into solution per volume. Read a low solubility as little dissolved substance.

In one data set the test system is MS S. aureus. Put plainly: MIC of AMPs. The data set is classed as cell-based. The following applies: Gram +.
For the next data set, the system named is P. aeruginosa. Kind of data set: MIC of AMPs. Format: cell-based. The following applies: Gram −.
Another data set deals with A. baumannii. Put plainly: MIC of AMPs. Format: cell-based. The following applies: Gram −.
The next data set relates to S. enterica. Put plainly: MIC of AMPs. The data set is classed as cell-based. The following applies: Gram −.
The test system of a further data set is H. influenzae. Put plainly: MIC of AMPs. Format: cell-based. The following applies: Gram −.
The subject of data set [1] is M. smegmatis. Put plainly: MIC of AMPs. Format: cell-based. The following applies: Gram +/−.
In the next data set the test system is MR S. aureus. The following applies: Gram +.
A further data set relates to B. anthrax. The following applies: Gram +.
Data set [2] relates to M. tuberculosis. The following applies: Gram +/−.
Data set [3] relates to M. tuberculosis. The following applies: minimum concentration inhibiting 90% culture growth; cited from earlier work.
The test system of data set [4] is M. smegmatis. The following applies: minimum concentration inhibiting 90% culture growth; cited from earlier work.
In data set [5] the test system is THP-1 human macrophage control cell line. The following applies: selectivity index at IC90, MTb over THP-1 human macrophage control cell line; cited from earlier work.
The next data set deals with A. baumannii (−). Kind of data set: MIC of VAN, NGVAN, NG (broth dilution). Format: cell-based. The following applies: Acinetobacter baumannii, read-out: MIC of VAN. Here is the method:
(§1) 2× Dilutions of treatments in broth were plated into a U-bottom 96 well plate. Overnight cultures of Pseudomonas aeruginosa, Escherichia coli, Acinetobacter baumannii, Salmonella enterica and Staphylococcus aureus were incubated in cation adjusted Mueller-Hinton broth as advised by CLSI. Bacteria were diluted to an OD600 of 0.002 and plated in a 1:1 volume ratio with the treatments. These cultures were incubated overnight and MIC values were assessed by visual evaluation of growth inhibition when compared to untreated samples.

A further data set deals with E. coli (−). Put plainly: MIC of VAN, NGVAN, NG (broth dilution). The data set is classed as cell-based. The following applies: Escherichia coli, drug or equivalent concentration of drug loaded into nanogels. Here is the method:
as §1
(Dilution methods test growth across graded concentrations, often in twofold steps.)

In the next data set the test system is P. aeruginosa (−). Put plainly: MIC of VAN, NGVAN, NG (broth dilution). The following applies: Pseudomonas aeruginosa, read-out: MIC of VAN. The data set is classed as cell-based. The protocol:
as §1

Another data set relates to S. enterica (−). Put plainly: MIC of VAN, NGVAN, NG (broth dilution). Format: cell-based. The following applies: Salmonella enterica, drug or equivalent concentration of drug loaded into nanogels. Here is the method:
as §1

A further data set relates to S. aureus (+). Put plainly: MIC of VAN, NGVAN, NG (broth dilution). Format: cell-based, Staphylococcus aureus. The following applies: S. aureus vs four gram-negative pathogens. Here is the method:
as §1

Data set [6] has as its system panel of gram-negative and gram-positive bacterial pathogens. Put plainly: Antibacterial activity against the whole panel. Format: cell-based. The following applies: four different gram-negative pathogens; highest concentration tested. Here is the method: as §1
Next, the antibacterial activity of VAN-loaded nanogels were evaluated against a panel of gram-negative and gram-positive bacterial pathogens (Table 5). It is important to note that clinical use of VAN is generally excluded to gram-positive infections as most gram-negative pathogens are innately resistant to the drug. This is due to the thick outer membrane of gram-negative bacteria which prevents the large glycopeptide drug from diffusing into the cell wall and reaching its enzymatic target.

A short description of data set [7]: Cargo release from nanogels by dialysis into 37° C. PBS. The data set is classed as physicochemical. The following applies: from N:P 10 nanogel carrier. Here is the method:
Loaded BNCs in DI water were injected into 300 kDa MWCO dialysis tubing. The tubing was submerged in a 30× (by volume) bath of PBS. At predetermined time points, multiple samples (n≥3) were collected from multiple locations throughout the bath. These samples were pooled and release was characterized in the same method used for assessing initial loading. Before each measurement, volume was adjusted to that of the initial bath to ensure concentration consistency.
Next, physiologic release of the encapsulated cargo was assessed by loading each nanogel formulation into a dialysis cassette and suspending it in a release media of 37° C. PBS. The concentration of loaded drug or GFP liberated to the dialysis media was then monitored as a function of time via UV-Vis or fluorescence spectroscopy, respectively. […] The majority of encapsulated protein (>75%) was retained within the nanogel carrier for the first 24 hours, followed by a rapid release phase that occurred between 24 and 72 hours.

Another data set relates to growing MTb. Kind of data set: KKL-35 viability of growing MTb cultures, plating assay. The data set is classed as cell-based, Mycobacterium tuberculosis. The following applies: FIG. 5A.
Data set [8] deals with dormant persister cells (MTb). Put plainly: KKL-35 viability of non-replicating MTb, Wayne model. The data set is classed as cell-based, Mycobacterium tuberculosis. The following applies: 3 days, FIG. 5B.
Another data set can be described thus: physchem. The following applies: water.

Converted amounts (≈) assume the structure as drawn. Ends that are not written are not given here.

For the compound H-KRWHWWRRHWVVW-NH2 [SMAS-1], the MIC in the data set with MS S. aureus was more than 80 µM; with P. aeruginosa, 50 µM; in the data set with A. baumannii it was 50 µM; in the data set with S. enterica it was 80 µM; in the data set with H. influenzae, 80 µM; with M. smegmatis [1], 5 µM. Besides, the MIC in the data set with MR S. aureus was more than 80 µM; in the data set on B. anthrax, more than 80 µM; against M. tuberculosis [2], 3 µM.
For H-WKWLKKWIK-NH2 [Entry 1], the MIC is more than 80 µM in the data set on MS S. aureus; 10 µM with P. aeruginosa; 25 µM with A. baumannii; 40 µM in the data set on S. enterica; 80 µM in the data set on H. influenzae; 20 µM in the data set with M. smegmatis [1]. For the same compound, the MIC in the data set on MR S. aureus was more than 80 µM; in the data set on B. anthrax it was 10 µM; against M. tuberculosis [2], 20 µM. For the same compound, the IC90 was 1.1 µM in the data set with M. tuberculosis [3] and 1.9 µM with M. smegmatis [4]. In addition, in [5], the SI90 is 21.3.
For “ILRWKWRWWRWRR-NH2 [Entry 2, cationic antimycobacterial peptide, amidated C-terminus]”, the IC90 in the data set on M. smegmatis [4] was 2.4 µM. In [5], the SI90 was 21.3.
With KRWWKWWRR-NH2 [Entry 3], the MIC turned out to be 80 µM in the data set with MS S. aureus; 20 µM with P. aeruginosa; 80 µM in the data set on A. baumannii; 80 µM in the data set with S. enterica; 80 µM in the data set with H. influenzae; 20 µM with M. smegmatis [1]. The MIC was found to be 80 µM in the data set on MR S. aureus, 80 µM in the data set on B. anthrax and 10 µM with M. tuberculosis [2]. For the same compound, the figures for the IC90 in the data set on M. tuberculosis [3] and in the data set on M. smegmatis [4] were 3.1 µM and 4.9 µM, respectively. For the same compound, in data set [5], the SI90 is reported as 51.2.
For RRWWRWVVW-NH2 [Entry 4], the MIC with MS S. aureus was found to be 20 µM; in the data set on P. aeruginosa it was 80 µM; in the data set on A. baumannii, 10 µM; in the data set on S. enterica it was 80 µM; in the data set with H. influenzae, 40 µM; with M. smegmatis [1], 20 µM. Besides, the MIC in the data set with MR S. aureus, in the data set on B. anthrax and in the data set with M. tuberculosis [2] was 20 µM throughout. For the same compound, the IC90 in the data set with M. tuberculosis [3] is 5.6 µM; with M. smegmatis [4], 11.4 µM. The SI90 in [5] is 32.0.
Turning to `CN[C@H](CC(C)C)C(=O)N[C@H]1C(=O)N[C@@H](CC(N)=O)C(=O)N[C@H]2C(=O)N[C@H]3C(=O)N[C@H](C(=O)N[C@H](C(=O)O)c4cc(O)cc(O)c4-c4cc3ccc4O)[C@H](O)c3ccc(c(Cl)c3)Oc3cc2cc(c3O[C@@H]2O[C@H](CO)[C@@H](O)[C@H](O)[C@H]2O[C@H]2C[C@](C)(N)[C@H](O)[C@H](C)O2)Oc2ccc(cc2Cl)[C@H]1O` [VAN, Vancomycin], the MIC in the data set on A. baumannii (−), in the data set on E. coli (−), in the data set with P. aeruginosa (−) and in the data set with S. enterica (−) was 144 µg/mL each time. The “times more effective in killing S. aureus than gram-negative pathogens” value in the data set with S. aureus (+) is listed as more than 30 times. Besides, the “concentration giving inhibition of bacterial growth” value in [6] turned out to be 144 µg/mL. Further, the “time to 90% drug release” value in data set [7] (first order kinetics) is not above 4 h.
For `COc1cccc2c1C(=O)c1c(O)c3c(c(O)c1C2=O)C[C@@](O)(C(=O)CO)C[C@@H]3O[C@H]1C[C@H](N)[C@H](O)[C@H](C)O1` [DOX, Doxorubicin], in data set [7], the “time to complete release” value came to 48 h and the zero-order release rate was approximately 4 %/hour.
In the case of `O=C(Nc1nnc(-c2ccc(F)cc2)o1)c1ccc(Cl)cc1` [KKL-35, 4-chloro-N-(5-(4-fluorophenyl)-1,3,4-oxadiazol-2-yl)benzamide], the “IC towards growing MTb” value in the data set with growing MTb was less than 1.6 µg/mL. Also, the “IC towards dormant persister cells” value in [8] was less than 1.6 µg/mL. In addition, the “IC towards human HeLa cells” value in the data set with human HeLa cells was more than 500 µg/mL. The solubility in the data set “physchem” was determined as 500 µg/mL (≈ 1570 µM).

The values above are taken from patent US11458099B2, “Inhalable antimicrobial particles and methods of making the same” (The Penn State Research Foundation, priority 2017, dated 2022).
